Patent publication US8586719B2, “Triterpenes for modulating gene expression and cell membrane, and as antiprotozoal agents” (Pacific Arrow Limited, priority 2005, dated 2013)
Values after ≈ are worked out from the molar mass of the structure shown.

Tests used:
angiopoietin-like 4 = assay: Microarray gene expression in ES2 cells: angiopoietin-like 4; format: cell-based, human; settings: micro array
Excerpt: (§1) The composition comprises bioactive compounds from natural plants or synthesis. The majority of the plants are from the Sapindaceae family, which has 140-150 genera with 1400-2000 species. The program is based on our purification methods and biological assays including the MTT assay See International Application No. PCT/US05/31900, filed Sep. 7, 2005, U.S. Ser. No. 11/289,142, filed Nov. 28, 2005, and U.S. Ser. No. 11/131,551, filed May 17, 2005, and PCT/US2008/002086, 1188-ALA-PCT, filed Feb. 15, 2008, the contents of which are incorporated herein by reference. The details of Analysis of gene expression of ES2 cells after Y-treatment by Microarray, Data Analysis Methods and Western blot in PCT/US2008/002086, 1188-ALA-PCT, filed Feb. 15, 2008, the contents of which are incorporated herein by reference
(§2) Angiogenesis is a process involving the growth of new blood vessels. It is a normal process in growth and development. However, this is also a fundamental step in the transition of tumors from a dormant state to a malignant state. The angiopoietins are protein growth factors that modulate angiogenesis. […]

angiopoietin-like 1 = assay: Microarray gene expression in ES2 cells: angiopoietin-like 1; format: cell-based, human; settings: micro array
Excerpt: as §1, §2

[1] = system: ES2 (human ovarian cancer) xenograft tumor; assay: Genesis of blood vessels in xenograft tumor treated with compound Y; format: in vivo, Athymic Nu/Nu mice; settings: ES2 i.p. xenograft, 2.5 mg/kg i.p. daily days 10-15 and 18-22, H&E sections
Method: Method: Athymic Nu/Nu mice (5-6 weeks old) are divided into two groups (1 and 2) with 5 animals in each group. On day 0, all mice were transplanted intra-peritoneally with one million ES2 (human ovarian cancer) cells. Animals were randomly divided into two groups:
Group 2: Drug-treatment group. On days 10-15 and 18-22, animals received daily drug administration of Xanifolia-Y, by i.p. route at dosage of 2.5 mg/kg.
Animals with high tumor burden were euthanized and solid tumors were taken out from these mice (between 18-27 days). Tumor tissues fixed with formalin at room temperature. The fixed tissues were sectioned and stained with Haematoxylin and eosin (H&E). The red blood cells inside the micro blood vessels were identified under a microscope.

ITGAV (integrin alpha V) = assay: Gene expression by Real-time PCR: ITGAV; format: cell-based; settings: control = 100
Excerpt: (§3) Determination of gene expression by Real-time PCR method (Brilliant QPCR, Agilent Technologies): The real-time polymerase chain reactions further confirm the results obtained from micro array analysis. The Real-time PCR results (shown below) confirmed that Compound Y3 and YM increase the expression of the genes: ANGPT2, DDIT3, LIF and NFKB1Z

FN1 (fibronectin 1) = assay: Gene expression by Real-time PCR: FN1; format: cell-based; settings: control = 100
Excerpt: as §3

[2] = system: insulin-like growth factor binding protein 7 (IGFBP7); assay: Microarray gene expression in ES2 cells: IGFBP7; format: cell-based, human; settings: probe set 201163_s_at
Excerpt: as §1

ES2 cells = assay: Microarray experiments: lists of modulated genes; format: cell-based, human
Excerpt: as §1

angiopoietin 1 = assay: Microarray gene expression in ES2 cells: angiopoietin 1; format: cell-based, human; settings: micro array
Excerpt: as §1, §2

Fibronectin = Fibronectin secretion from ES2 cells; format: cell-based, human
Method: Reduction of Fibronectin secretion from ES2 cells after xanifolia-Y treatment. • (Results of F1, F3, F4, F5, F7, F8, F11, F12A, F15, F16, F17) Data in PCT/US2008/002086, 1188-ALA-PCT, filed Feb. 15, 2008 are incorporated herein by reference • (F11) For lung carcinoma cells (H460), at concentration of 20 ug/ml, there are inhibitions of Fibronectin secretion ranged from 20-60%. • (F12A) For bladder carcinoma cells (HTB-9), Xanifolia-Y (10 ug/ml) inhibits 50% of Fibronectin secretion. • (F15) In liver HepG2 cells. 10 ug/ml of xanifolia-Y inhibits 42% secretion of Fibronectin. • (F16) Incubation of brain glioblastoma T98G cells with 10 ug/ml of xanifolia-Y inhibits 27% Fibronectin secretion and with 20 ug/ml Y inhibits 74% Fibronectin secretion. • (F17) For skin SK-MeI-5 cells, the inhibition is 40-57% with 20 ug/ml of Xanifolia-Y.

Glypican 6 (GPC6) = assay: Microarray gene expression in ES2 cells: Glypican; format: cell-based, human
Excerpt: as §1

[3] = system: Leishmania Major (promastigotes); assay: Cell growth of Leishmania parasites by MTT assay; format: cell-based; settings: Leishmania major, read-out: IC50, cytotoxic to Leishmania Major (promastigotes)
Method: Method: Leishmania parasites (Leishmania major: MRHO/SU/59/P/LV39) were grown in culture medium in a T75 flask at room temperature. Promastigotes of Leishmania major (approximately 40 million per ml) were used in the experiment. 1.2 ml cell culture was transferred to a well of the 24-wells plate. Saponin Y10 (0.2 ml in medium) with different concentrations (final 6.25-200 ug/ml) was added to culture and cells were grown for 1-5 days at room temperature. At the end of drug-treatment, 150 ul of MTT (5 mg/ml in PBS) was added to each well and incubated for 4 hours. Formazan formed in cells was dissolved with DMSO and the OD at 490 nm was determined by an ELISA reader.

[4] = system: LIF (Leukemia inhibitory factor); assay: Gene expression by Real-time PCR: LIF; format: cell-based; settings: DMSO control = 100
Excerpt: as §3

ANGPT2 (angiopoietin 2) = assay: Gene expression by Real-time PCR: ANGPT2; format: cell-based; settings: DMSO control = 100
Excerpt: as §3

[5] = system: DDIT3 (DNA-damage-inducible transcript 3); assay: Gene expression by Real-time PCR: DDIT3; format: cell-based; settings: DMSO control = 100
Excerpt: as §3

C/C=C(/C)C(=O)O[C@H]1[C@H](OC(=O)/C(C)=C\C)[C@@]2(CO)C(CC1(C)C)C1=CCC3[C@@]4(C)CC[C@H](O[C@@H]5OC(C(=O)O)[C@@H](O)[C@@H](O[C@@H]6O[C@@H](CO)[C@@H](O)C6O)C5O[C@@H]5OC(CO)[C@H](O)[C@@H](O)C5O)C(C)(C)C4CC[C@@]3(C)[C@]1(C)[C@@H](O)[C@H]2O (stereo partly drawn) [Y, 3-O-[β-D-galactopyranosyl(1→2)]-α-L-arabinofuranosy (1→3)-β-D-glucuronopyranosyl-21,22-O-diangeloyl-3β, 15α, 16α, 21β, 22α, 28-hexahydroxyolean-12-ene]
gene expression of angiopoietin-like 4 (angiopoietin-like 4): inhibit | gene expression of angiopoietin-like 1 (angiopoietin-like 1): inhibit | blood vessels in tumor sections ([1]; listed as Xanifolia Y): More blood vessels were observed in the control Group 1 than those in the drug-treated Group 2 | blood vessels in tumor sections ([1]; listed as Xanifolia-Y): more blood vessels were observed in the control Group1 than those in the drug-treated Group 2 | ITGAV expression, % of control (ITGAV (integrin alpha V)): 63.8 % of control | FN1 expression, % of control (FN1 (fibronectin 1)): 44.1 % of control | IGFBP7 expression, treated/D (DMSO control) [2]: −1.4 | genes expression of the adhesion-related genes listed in b182 (FN1, ITGAV, LAMA4 ...) (ES2 cells): inhibited | gene expression of the genes listed in b176 (ES2 cells; Microarray): modulates | gene expression of the genes listed in b178 (ES2 cells; Microarray): inhibiting | gene expression of the genes listed in b180 (ES2 cells; Microarray): stimulates | gene expression of angiopoietin 1 (angiopoietin 1): inhibit | Fibronectin secretion from ES2 cells (Fibronectin): Reduction | GPC6 expression, treated/D (DMSO control) (Glypican 6 (GPC6); probe set 227059_at): −2.2 | GPC6 expression, treated/D (DMSO control) (Glypican 6 (GPC6); probe set 243865_x_at): −2.7 | IC50 [3]: 15 µg/mL (≈ 13.1 µM) | LIF expression, % of control [4]: 163 % of control | ANGPT2 expression, % of control (ANGPT2 (angiopoietin 2)): 300 % of control | DDIT3 expression, % of control [5]: 213 % of control
